The values below come from paper PMC6965176, “Targeting Forward and Reverse EphB4/EFNB2 Signaling by a Peptide with Dual Functions” (Scientific Reports, 2020).

pIC50: −log10 of the molar value. Non-standard residues stand in square brackets, D forms with d. Residues, ends and D or L forms follow the SMILES beside them.

For data set [1], the system named is MDA-HGSC-1 PDX tumor. As to the kind of experiment: Subcutaneous MDA-HGSC-1 patient-derived xenograft model. The class given is in vivo, mice. The conditions noted are these: 300 µg/injection i.p., 14 doses (Fig. S10B). An excerpt: Under Institutional Review Board (IRB protocol PA15-0441) and IACUC approval at MD Anderson Cancer Center, patients with HGSC who were being treated at MD Anderson gave consent for the use of their tumor tissue in this study. Four- to six-week-old female Balb C athymic nude mice (Harlan Laboratories) were implanted with one PDX 3×3×3 mm tumor cube (MDA-HGSOC-1 high-grade serous ovarian cancer; generation 9) in the dorsal flank to create subcutaneous HGSC-PDX model. Tumor size was monitored by caliber, and tumor volume was calculated using the formula V(cm^3) = (length x width^2)/2. Mice were randomly assigned to the PBS vehicle control or BIDEN-AP treatment group, 6 mice per group, once tumor size reached ~100 mm^3 (21 days after implantation). Treatments consisted of intraperitoneal injection of PBS or BIDEN-AP at 300 μg/injection (100 μL/injection) once every other day for a total of 14 doses. At the end of the study (day 49), all mice were euthanized, and tumors were collected, weighed, snap-frozen in optimal cutting temperature compound with liquid nitrogen, and cryosectioned into 5-μm sections for immunohistochemical staining of CD31 and Ki67 markers.
incubated overnight at 4°C.
Slides were subjected to recombinant terminal
The slides were then labeled by adding
Microvessel density was evaluated
magnification from three tumor samples.
For CD31 staining, slides were […]
On the technique in general: In xenograft studies the graft and the host belong to different species.

Data set [2] deals with T1, EphB4 on the surface of A2780cp20 cells (Homo sapiens, UniProt P54760).
T1 construct: endogenous in cells; host or cells: A2780cp20 ovarian cancer cells
T1 sequence (P54760 16-987): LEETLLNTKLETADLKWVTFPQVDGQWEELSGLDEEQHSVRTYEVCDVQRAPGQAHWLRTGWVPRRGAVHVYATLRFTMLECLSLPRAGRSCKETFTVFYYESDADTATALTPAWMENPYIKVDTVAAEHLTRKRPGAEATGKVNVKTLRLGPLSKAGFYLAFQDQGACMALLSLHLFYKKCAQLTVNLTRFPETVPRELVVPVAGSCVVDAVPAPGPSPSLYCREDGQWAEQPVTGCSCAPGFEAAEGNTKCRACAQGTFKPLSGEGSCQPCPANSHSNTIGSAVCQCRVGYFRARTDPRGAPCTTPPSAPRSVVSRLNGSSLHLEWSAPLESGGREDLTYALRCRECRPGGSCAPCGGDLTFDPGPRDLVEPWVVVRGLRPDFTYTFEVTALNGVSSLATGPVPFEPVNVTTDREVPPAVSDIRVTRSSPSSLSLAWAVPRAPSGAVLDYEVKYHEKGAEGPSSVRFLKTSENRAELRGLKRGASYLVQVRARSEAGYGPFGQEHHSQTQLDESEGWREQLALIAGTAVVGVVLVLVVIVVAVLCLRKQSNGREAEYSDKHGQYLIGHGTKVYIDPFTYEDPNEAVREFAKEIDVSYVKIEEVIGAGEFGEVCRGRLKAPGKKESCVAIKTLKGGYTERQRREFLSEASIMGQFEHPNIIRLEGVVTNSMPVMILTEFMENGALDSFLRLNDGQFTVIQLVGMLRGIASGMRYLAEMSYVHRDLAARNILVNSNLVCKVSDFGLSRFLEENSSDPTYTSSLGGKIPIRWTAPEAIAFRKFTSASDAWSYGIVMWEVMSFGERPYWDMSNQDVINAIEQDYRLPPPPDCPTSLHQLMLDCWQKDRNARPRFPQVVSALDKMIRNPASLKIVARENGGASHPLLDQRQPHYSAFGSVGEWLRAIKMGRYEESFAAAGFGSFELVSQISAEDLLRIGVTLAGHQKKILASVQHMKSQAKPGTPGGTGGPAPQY
In words: Cell-based binding assay: displacement of EFNB2-Fc from A2780cp20 cells (flow cytometry). The conditions noted are these: EFNB2-Fc 20 nM, BIDEN-AP 0-100 µM, 25 °C, 1 h, PE-anti-Fc flow cytometry, duplicate (Fig. 1D,E). Here is the method:
Figure 1 Novel EphB4 agonist BIDEN-AP has high receptor binding affinity. (A) Structure of BIDEN-AP. D-Tyr-P3 is highlighted in red. (B) Surface plasmon resonance (SPR) sensorgrams of BIDEN-AP. Vertical axes, in response units (RU), represent binding of the peptide to immobilized EphB4. (C) Competition of BIDEN-AP with EFNB2-Fc for EphB4 binding. BIDEN-AP at concentrations from 2 nM to 1000 nM was mixed with human EphB4 (30 nM) and injected onto sensor chips coated with EFNB2-Fc. (D) Competition of BIDEN-AP with EFNB2-Fc for EphB4 binding at the cellular level. A2780cp20 cells were co-incubated with EFNB2-Fc (20 nM) and BIDEN-AP (at concentrations from 0 to 100 µM) at 25 °C for 1 h. EFNB2-Fc bound to the cells was probed with phycoerythrin-labeled anti-Fc antibody and analyzed by flow cytometry. (E) Bound EFNB2-Fc as a function of BIDEN-AP concentration. […]
A2780cp20 ovarian cancer cells (1×10^6 cells/mL) were incubated with EFNB2-Fc (20 nM) and BIDEN-AP at concentrations ranging from 0 to 100 µM at 25 °C for 1 h. After washings, EFNB2-Fc bound to the cells were probed with phycoerythrin (PE)-labeled anti-Fc antibody and analyzed by flow cytometry. Binding of BIDEN-AP to A2780cp20 cells was determined by its capacity to displace EFNB2-Fc’s binding to the tumor cells, measured by decreased PE fluorescence signal. Cells were analyzed in a Cellquest fluorocytometer (BD Bioscience, San Jose, CA). […]
For orientation: A flow cytometer gives signals particle by particle.

Consider `CC[C@H](C)[C@H](NC(=O)[C@@H]1CCCN1C(=O)CNC(=O)[C@H](CC(N)=O)NC(=O)[C@@H]1CCCN1C(=O)[C@H](CO)NC(=O)[C@H](Cc1ccccc1)NC(=O)[C@H](CC(C)C)NC(=O)[C@@H](Cc1ccc(O)cc1)NC(=O)[C@H](CC(N)=O)NC(=O)[C@@H](N)[C@@H](C)O)C(=O)N[C@@H](C)C(=O)N[C@@H](CCCNC(=N)N)C(=O)N[C@@H](C)C(=O)N[C@@H](Cc1c[nH]c2ccccc12)C(N)=O` [BIDEN-AP] (H-TN[dY]LFSPNGPIARAW-NH2), for which the “body weight change compared to control group” value in data set [1] is “did not cause body weight change”. The pIC50 in data set [2] was around 6.00.

In general, pIC50 refers to the IC50 on a negative log10 scale, so that one unit is a factor of ten. A higher pIC50 goes with a small IC50.
